In US8222260B2, “Substituted 6-anilinopurine derivatives as inhibitors of cytokinin oxidase/dehydrogenase and preparations containing these derivatives” (Univerzita Palackego V Olomouci, priority 2007, dated 2012) one finds GI50 and EC50 data, which are given here for 14 molecules.

The test system of assay [1] is T-lymphoblastic leukemia cell line CEM. Put plainly: Calcein AM cytotoxicity assay. Type of assay: cell-based, human. The settings on record: Homo sapiens, 72 hours.
Another assay concerns the target T1, AHK3 (Arabidopsis thaliana, UniProt Q9C5U1).
T1 sequence (Q9C5U1 1-1036): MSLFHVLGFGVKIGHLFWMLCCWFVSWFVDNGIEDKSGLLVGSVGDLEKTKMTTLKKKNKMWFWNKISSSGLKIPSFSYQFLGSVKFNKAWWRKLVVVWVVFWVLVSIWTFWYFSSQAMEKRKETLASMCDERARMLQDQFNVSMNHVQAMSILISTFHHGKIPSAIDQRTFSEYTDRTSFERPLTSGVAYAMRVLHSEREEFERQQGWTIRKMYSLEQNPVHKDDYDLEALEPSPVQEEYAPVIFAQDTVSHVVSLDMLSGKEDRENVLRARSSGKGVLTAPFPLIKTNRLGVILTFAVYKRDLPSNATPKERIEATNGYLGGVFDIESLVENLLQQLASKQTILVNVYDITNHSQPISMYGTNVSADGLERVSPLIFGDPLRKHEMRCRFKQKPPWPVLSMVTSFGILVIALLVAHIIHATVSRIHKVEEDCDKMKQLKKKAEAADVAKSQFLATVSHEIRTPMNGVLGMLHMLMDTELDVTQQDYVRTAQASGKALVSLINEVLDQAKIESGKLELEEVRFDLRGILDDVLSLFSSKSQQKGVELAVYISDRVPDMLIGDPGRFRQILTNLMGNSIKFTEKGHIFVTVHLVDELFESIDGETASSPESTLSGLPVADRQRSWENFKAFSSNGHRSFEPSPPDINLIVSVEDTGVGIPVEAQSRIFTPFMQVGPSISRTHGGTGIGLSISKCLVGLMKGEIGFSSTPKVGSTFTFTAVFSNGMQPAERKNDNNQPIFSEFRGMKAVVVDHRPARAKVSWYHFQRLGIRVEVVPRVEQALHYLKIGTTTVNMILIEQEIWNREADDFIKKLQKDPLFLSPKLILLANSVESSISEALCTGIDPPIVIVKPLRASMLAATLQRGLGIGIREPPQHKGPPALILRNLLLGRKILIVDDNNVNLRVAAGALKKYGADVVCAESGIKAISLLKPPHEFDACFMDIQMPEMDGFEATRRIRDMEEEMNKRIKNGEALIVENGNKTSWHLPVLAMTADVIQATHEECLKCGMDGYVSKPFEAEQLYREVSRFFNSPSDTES
Put plainly: Activation of cytokinin receptors (E. coli KMI001 beta-galactosidase reporter). In kind it is cell-based. The conditions noted are these: 28 h incubation; n.a. means no activation. Put shortly:
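E. coli KMI001 carrying the receptor plasmid was grown in M9 + 0.1% casamino acids at 25 °C, diluted 1:600 and treated with compound (stock solutions 10^-7–5×10^-5 M). Supernatant β-galactosidase was read by 4-methylumbelliferyl galactoside hydrolysis (1 h, 37 °C, Na2CO3 stop). EC50 came from dose-response curves, triplicate means.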

Assay [2] has as its system erytroid leukemia cell line K-562. Put plainly: Calcein AM cytotoxicity assay. Type of assay: cell-based, human. The conditions noted are these: Homo sapiens, K562, 72 hours. The method in brief:
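Cells seeded at 2.500-30.000 per well, pre-incubated 24 h, then exposed 72 h at 37 °C to six 3-fold dilutions (top 166.6 μM), in triplicate. Calcein AM added to 1 μg/ml for 1 h; fluorescence gives growth inhibition, GI50 taken from dose-response curves.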

Structures are written as SMILES. pEC50: −log10 of the molar value.

As to `Clc1nc(Nc2ccccc2)c2[nH]cnc2n1` [Compound 1, 2-Chloro-6-anilinopurine], the GI50 (in general, the concentration at which growth is held to half of that of the control) in assay [1] is above 167 µM.
On to `Clc1cccc(Nc2nc(Cl)nc3nc[nH]c23)c1` [Compound 3, 2-Chloro-6-(3-chloroanilino)purine], for which the pEC50 (in general, the EC50 on a negative log10 scale, so that one unit is a factor of ten) on AHK3 is 4.70. Also, the GI50 in assay [1] is above 167 µM.
With `Clc1ccc(Nc2nc(Cl)nc3[nH]cnc23)cc1` [Compound 4], the 50% growth inhibitory concentration (GI50) in assay [2] and in assay [1] was above 167 µM in each case.
Take `Fc1cccc(Nc2nc(Cl)nc3nc[nH]c23)c1` [Compound 6, 2-Chloro-6-(3-fluoroanilino)purine]: in assay [2], the GI50 is above 167 µM.
`Oc1cccc(Nc2nc(Cl)nc3nc[nH]c23)c1` [Compound 9, 2-Chloro-6-(3-hydroxyanilino)purine]: the pEC50 at AHK3 was 5.55.
`COc1cccc(Nc2nc(Cl)nc3nc[nH]c23)c1` [Compound 12, 2-Chloro-6-(3-methoxyanilino)purine] had a pEC50 at AHK3 of 5.02.
On AHK3, `Fc1nc(Nc2ccccc2)c2nc[nH]c2n1` [Compound 40] showed a pEC50 of 4.72. In addition, in assay [1], the GI50 was above 167 µM.
The corresponding values for `Fc1nc(Nc2cccc(Cl)c2)c2nc[nH]c2n1` [Compound 42] are 4.50 and above 167 µM.
At AHK3, `Oc1cccc(Nc2nc(F)nc3[nH]cnc23)c1` [Compound 48] gave a pEC50 of 4.82. Besides, the GI50 in assay [2] was above 167 µM.
For the molecule `COc1cccc(Nc2nc(F)nc3nc[nH]c23)c1` [Compound 51, 2-Fluoro-6-(3-methoxyanilino)purine], the pEC50 at AHK3 is 4.64.
Molecule `Nc1nc(Nc2cccc(Cl)c2)c2nc[nH]c2n1` [Compound 66] showed a pEC50 on AHK3 of 4.37.
Take `Nc1nc(Nc2cccc(O)c2)c2nc[nH]c2n1` [Compound 72]: the pEC50 on AHK3 is 5.11.
The molecule `Fc1cccc(Nc2nc(S)nc3[nH]cnc23)c1` [Compound 83] showed a pEC50 on AHK3 below 4.30.
For `c1coc(CNc2ncnc3nc[nH]c23)c1` [Kinetin, 6-furfurylaminopurine, reference compound], the concentration for 50% growth inhibition (GI50) in assay [1] was 155 µM.
